Measured values taken from US9708272B2, “Inhibitors of α-amino-β-carboxymuconic acid semialdehyde decarboxylase” (TES Pharma S.r.l., priority 2014, dated 2017).

How the values were obtained:
hERG potassium channel = hERG potassium channel (Homo sapiens (Human), UniProt Q12809); test: Predictor hERG assay, fluorescence polarization tracer displacement; conditions: hERG channel affinity binding; DMSO 1%
Excerpt: The Predictor hERG assay kit is stably transfected with hERG potassium channel and a high-affinity red fluorescent hERG channel ligand and is used for the determination of hERG channel affinity binding of compounds of Formula (I), Formula (Ia), Formula (Ib), Formula (II), or Formula (III), or a pharmaceutically acceptable salt thereof. Compounds that bind to the hERG channel protein (competitors) are identified by their ability to displace the tracer which results in a lower fluorescence polarization.
The Predictor hERG assay kit (Invitrogen), containing membrane preparations from Chinese hamster ovary cells stably transfected with hERG potassium channel and a high-affinity red fluorescent hERG channel ligand (tracer), was used for the determination of hERG channel affinity binding of the test compounds in Table 2. Compounds that bind to the hERG channel protein (competitors) were identified by their ability to displace the tracer, resulting in a lower fluorescence polarization. The final concentration of DMSO in each well was maintained at 1%. The assays were performed according to the manufacturer's protocol (Invitrogen).

[1] = test system: SIRT1-regulated genes (Sod2); test: RT-qPCR analysis of SIRT1-regulated genes in AML-12 cells; format: cell-based, mouse; conditions: 24 hrs
Description: (§1) Cells (AML-12, Hepa-1.6, HEK-293, primary human and murine hepatocytes) are treated with different concentrations of a compound of Formula (I), Formula (Ia), Formula (Ib), Formula (II), or Formula (III), or a pharmaceutically acceptable salt thereof and the gene expression of ACMSD, Pgc1a, Sod1, and Sod2 (MnSOD) is determined using RT-qPCR. Total RNA is extracted from cells and the extracted RNA is treated with DNase and used for reverse transcription (RT).
(§2) Gene expression of ACMSD and genes known to be regulated by SIRT1, (an enzyme that is strictly NAD^+ dependent) such as Pgc1a, Sod1, Sod2 (MnSOD), were analysed in AML-12 cells, Hepa-1.6 cells and primary murine hepatocytes treated with Compound 1 or 17.
(§3) Cells (AML-12, Hepa-1.6, HEK-293, primary human and murine hepatocytes) were treated with different concentrations of Compound 1 or Compound 17. Total RNA was extracted from cells using TRIzol (Invitrogen) according to the manufacturer's instructions. The RNA was treated with DNase, and 2 μg of RNA was used for reverse transcription (RT). 50× diluted cDNA was used for RT-quantitative PCR (RT-qPCR) reactions. The RT-qPCR reactions were performed using the Light-Cycler system (Roche Applied Science) and a qPCR Supermix (QIAGEN) with the indicated primers. The average of at least three technical repeats was used for each biological data point.

[2] = test system: SIRT1-regulated genes (Sod2); test: RT-qPCR analysis of SIRT1-regulated genes in Hepa-1.6 cells; format: cell-based; conditions: Hepa-1.6 hepatic cell line; 24 hrs
Description: as §1, §2, §3

FoxO1 = FoxO1 phosphorylation levels in AML-12 cells (western blot); format: cell-based, mouse; conditions: 24 hours, FIG. 6
Description: AML-12 cells are treated with different concentrations of a compound of Formula (I), Formula (Ia), Formula (Ib), Formula (II), or Formula (III), or a pharmaceutically acceptable salt thereof. Cells are then lysed, and analyzed by SDS-PAGE/western blot. Blocking and antibody incubations are then done and each protein present is detected with its specific antibody.
AML-12 cells were treated with different concentrations of Compound 1 or Compound 17 for 24 hours. Cells were then lysed in lysis buffer (50 mM Tris, 150 mM KCl, EDTA 1 mM, NP40 1%) containing protease and phosphatase inhibitors, and analyzed by SDS-PAGE/western blot. Blocking and antibody incubations were done in 5% milk. Each protein present was detected with its specific antibody. Tubulin antibody was obtained from Sigma Inc, FoxO1 and phopho-FoxO1 (Ser256) antibodies were obtained from Cell Signaling. Antibody detection reactions were developed by enhanced chemiluminescence (Advansta, Calif., USA) using x-ray films.

SOD2 [3] = test: Modulation of SOD2 activity in AML-12 cells; format: cell-based, mouse; conditions: 24 hours
Description: Primary hepatocytes or AML-12 cells are lysed and total protein concentration is determined using the Bradford assay. SOD2 activity is determined at indicated times after treatment with a compound of Formula (I), Formula (Ia), Formula (Ib), Formula (II), or Formula (III), or a pharmaceutically acceptable salt thereof, using a SOD Assay Kit. Absorbance is determined and results are expressed in U/ml/mg of protein according to the standard curve and measured protein concentration. […]
Primary hepatocytes or AML-12 cells were then lysed in a 20 mM HEPES buffer (Gibco), pH 7.2, containing 1 mM EGTA (Sigma), 210 mM mannitol (Sigma), and 70 mM sucrose (AMRESCO). Total protein concentration was determined using the Bradford assay (BioRad). SOD-2 activity was determined at indicated times after ACMSD inhibitor treatment by the SOD Assay Kit (Cayman Chemical) according to the manufacturer's instructions. […] Absorbance was determined with a Victor X4 multi-label plate reader (Perkin-Elmer) at 450 nm. Results are expressed in U/ml/mg of protein according to the standard curve and measured protein concentration.

ACMSD-1 = ACMSD-1 (Homo sapiens (Human), UniProt Q8TDX5); test: ACMSD-1 modulation in HEK293T cells transiently expressing ACMSD; format: cell-based; conditions: about 50 nM to about 5 uM, 48 hrs to 72 hrs
Description: HEK293T cells are seeded and transfected to transiently express ACMSD. The cells are then stimulated with different concentrations of Compound 1, and then lysed to measure the ACMSD activity in a spectrophotometrical in vitro assay. The amount of the whole protein content in cell lysates is detected by Bradford analysis and used to get the specificity activity of the enzyme normalized in all samples.
HEK293T cells (ATCC) were seeded in six-well plates and transfected using Fugene HD to express transiently ACMSD. 24 hrs post transfection, the cells were stimulated for 48 hrs to 72 hrs with different concentrations of Compound 1 and then lysed to measure the ACMSD activity, by measuring the conversion of 30H-Anthranilic Acid into product (i.e. α-amino-beta-carboxymuconate-ε-semialdehyde, ACMS) in a spectrophotometrical in vitro assay. The amount of the whole protein content in cell lysates was detected by Bradford analysis. This value was used to get the specificity activity of the enzyme normalized in all samples (mU/ml or ΔE/Δt/mg of total protein).
Having determined the optimum stimulation time and transfection protocol cells were stimulated with different concentrations of Compound 1 (about 50 nM to about 5 uM).

HePG2 cells = test: Cytotoxicity (LDH release, ATP level) in HePG2 cells; format: cell-based; conditions: 10 nM to 300 μM; 4 hrs; DMSO 1%
Description: (§4) HePG2 and AML-12 cells are seeded and a dose-response of the compound is performed at various concentrations. Cells are stimulated and the supernatant is used to perform LDH release as a measure of necrosis while the cells are lysed to detect ATP levels for determining cell viability.
(§5) Cytotoxicity: 20000 HePG2 and AML-12 cells were seeded in 96 well plate (Viewplate PerkinElmer). Dose-response of the compound in Table 2 was performed using HP D300 digital dispenser, ranging from 10 nM to 300 μM with constant DMSO 1% in medium. Cells were stimulated for 4 hrs at 37° C.; the supernatant was used to perform LDH release (Cytotox-one, Promega) as a measure of necrosis while the cells were lysed to detect ATP level for determining cell viability (Celltiter-glo, Promega) according to manufacturer's instructions.

AML-12 cells = test: Cytotoxicity (LDH release, ATP level) in AML-12 cells; format: cell-based, mouse; conditions: 10 nM to 300 μM; 4 hrs; DMSO 1%
Description: as §4, §5

SOD2 [4] = test: Modulation of SOD2 activity in murine primary hepatocytes; format: cell-based, mouse; conditions: primary murine hepatocytes; 24 hours
Description: Primary hepatocytes or AML-12 cells are lysed and total protein concentration is determined using the Bradford assay. SOD2 activity is determined at indicated times after treatment with a compound of Formula (I), Formula (Ia), Formula (Ib), Formula (II), or Formula (III), or a pharmaceutically acceptable salt thereof, using a SOD Assay Kit. Absorbance is determined and results are expressed in U/ml/mg of protein according to the standard curve and measured protein concentration.
Primary hepatocytes were prepared from 8-12-week-old C57BL/6J mice by collagenase perfusion method. Mouse livers were perfused with Hank's balanced salt solution (HBSS, KCl, 5.4 mM; KH2PO4, 0.45 mM; NaCl, 138 mM; NaHCO3, 4.2 mM; Na2HPO4, 0.34 mM; glucose, 5.5 mM; […]; EGTA, 50 mM; CaCl2, 50 mM; pH 7.4). Livers were then washed at a rate of 5 ml/min through the portal vein. After washing, livers were perfused with collagenase (0.025%) solution. Cell viability was assessed by the trypan blue method. Isolated primary hepatocytes were plated with DMEM medium (Gibco) including 10% FCS, 10 units per ml penicillin and HEPES for buffering. The cells were maintained in culture at 37° C. in a humidified atmosphere of 5% CO2/95% air. After 6-8 hrs of attachment, this medium was replaced with media containing different concentrations of an ACMSD inhibitor (i.e., Compound 1 or Compound 17) or with the corresponding concentration of DMSO (as a control). Primary hepatocytes were harvested about 24 hrs later if not indicated differently.
Primary hepatocytes or AML-12 cells were then lysed in a 20 mM HEPES buffer (Gibco), pH 7.2, containing 1 mM EGTA (Sigma), 210 mM mannitol (Sigma), and 70 mM sucrose (AMRESCO). Total protein concentration was determined using the Bradford assay (BioRad). SOD-2 activity was determined at indicated times after ACMSD inhibitor treatment by the SOD Assay Kit (Cayman Chemical) according to the manufacturer's instructions. In order to specifically detect the SOD2 activity 2 mM potassium cyanide was added to the assay, which inhibited both Cu/Zn-SOD and extracellular SOD, resulting in the detection of only Mn-SOD (SOD-2) activity. Absorbance was determined with a Victor X4 multi-label plate reader (Perkin-Elmer) at 450 nm. Results are expressed in U/ml/mg of protein according to the standard curve and measured protein concentration.

hACMSD (ACMSD1) = hACMSD (ACMSD1) (Homo sapiens (Human), UniProt Q8TDX5); test: Determination of ACMSD1 inhibition, spectrophotometrical in vitro assay; format: biochemical; conditions: 500 μM
Description: The activity of compounds as inhibitors of ACMSD1 is determined in a spectrophotometrical in vitro assay. The pre-assay mixture is incubated and a compound of Formula (I), Formula (Ia), Formula (Ib), Formula (II), or Formula (III), or a pharmaceutically acceptable salt thereof, and ACMSD1 solution is then added. The effect of ACMS concentration on the enzyme activity is investigated by varying 3-hydroxyanthranilic acid (3OH-HA) concentration in the pre-assay mixture. Kinetic parameters are calculated from the initial velocity data using a Lineweaver-Burk plot.
The activity of compounds 1-19 and 21-23 as inhibitors of ACMSD1 was determined by measuring the conversion of 30H-Anthranilic Acid into product (i.e., ACMS) in a spectrophotometrical in vitro assay.
The pre-assay mixture consisting of 3-hydroxyanthranilic acid (3OH-HA), 3-hydroxyanthranilic acid, 3,4-diOxygenase (HAO), and a dialyzed crude extract of E. coli BL21 (DE3) cells expressing the recombinant enzyme, was incubated at 25° C. with monitoring of the increase in absorbance at 360 nm due to the formation of ACMS from 3OH-HA. After the reaction was completed within ˜2 mins, an aliquot of ACMSD1 solution (prepared and purified from Pichia Pastoris overexpressing the recombinant enzyme) was added, and the decrease in absorbance at 360 nm was followed at 15 second intervals. […]

Sequence of ACMSD-1 (Q8TDX5 whole entry): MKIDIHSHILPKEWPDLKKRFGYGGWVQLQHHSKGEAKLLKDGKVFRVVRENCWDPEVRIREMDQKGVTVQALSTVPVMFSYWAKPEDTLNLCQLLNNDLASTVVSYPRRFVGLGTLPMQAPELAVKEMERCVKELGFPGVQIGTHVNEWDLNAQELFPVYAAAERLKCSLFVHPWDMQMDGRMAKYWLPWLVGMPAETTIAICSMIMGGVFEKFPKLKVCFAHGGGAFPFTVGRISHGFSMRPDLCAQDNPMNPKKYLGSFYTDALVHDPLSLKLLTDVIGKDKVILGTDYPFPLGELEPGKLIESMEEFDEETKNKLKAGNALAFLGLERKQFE
Sequence of hACMSD (ACMSD1) (Q8TDX5 whole entry): as above
Sequence of hERG potassium channel (Q12809 whole entry): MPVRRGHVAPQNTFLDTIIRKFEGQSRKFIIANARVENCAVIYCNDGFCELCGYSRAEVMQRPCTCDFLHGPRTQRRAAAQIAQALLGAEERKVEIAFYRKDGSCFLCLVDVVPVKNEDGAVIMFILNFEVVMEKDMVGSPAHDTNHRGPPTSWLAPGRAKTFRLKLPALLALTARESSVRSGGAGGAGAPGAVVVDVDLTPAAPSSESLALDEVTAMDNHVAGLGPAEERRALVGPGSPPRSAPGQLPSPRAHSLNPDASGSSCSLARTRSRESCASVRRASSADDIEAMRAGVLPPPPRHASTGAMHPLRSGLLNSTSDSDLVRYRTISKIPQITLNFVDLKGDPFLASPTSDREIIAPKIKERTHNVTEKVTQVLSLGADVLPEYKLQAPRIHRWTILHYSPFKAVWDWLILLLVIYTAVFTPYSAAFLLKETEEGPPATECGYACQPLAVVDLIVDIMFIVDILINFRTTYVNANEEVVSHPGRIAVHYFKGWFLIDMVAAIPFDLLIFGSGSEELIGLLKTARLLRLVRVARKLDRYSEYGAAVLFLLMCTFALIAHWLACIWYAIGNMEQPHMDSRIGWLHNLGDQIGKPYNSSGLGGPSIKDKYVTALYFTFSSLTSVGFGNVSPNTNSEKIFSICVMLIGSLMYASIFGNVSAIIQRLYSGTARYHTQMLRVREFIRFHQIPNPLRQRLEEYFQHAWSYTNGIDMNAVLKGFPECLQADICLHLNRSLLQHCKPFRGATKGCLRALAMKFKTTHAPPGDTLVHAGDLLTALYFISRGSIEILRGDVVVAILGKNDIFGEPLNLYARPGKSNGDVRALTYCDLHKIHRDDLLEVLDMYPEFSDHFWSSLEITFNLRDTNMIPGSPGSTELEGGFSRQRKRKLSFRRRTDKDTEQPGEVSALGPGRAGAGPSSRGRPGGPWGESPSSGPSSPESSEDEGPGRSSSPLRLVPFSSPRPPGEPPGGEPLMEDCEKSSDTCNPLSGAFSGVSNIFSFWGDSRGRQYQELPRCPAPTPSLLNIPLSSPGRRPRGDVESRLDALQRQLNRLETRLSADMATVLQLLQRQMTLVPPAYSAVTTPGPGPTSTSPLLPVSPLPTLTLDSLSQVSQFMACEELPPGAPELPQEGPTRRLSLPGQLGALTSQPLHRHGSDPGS

| SMILES | hERG (hERG potassium channel) | Sod2 mRNA levels [1] | Sod2 mRNA levels [2] | FoxO1 phosphorylation at Ser256 (FoxO1) | SOD2 activity (SOD2 [3]) | ACMSD-1 activity in over-expression cell-based assay (ACMSD-1) | Cytotoxicity Hep-G2 (HePG2 cells) | Cytotoxicity AML-12 (AML-12 cells) | SOD2 activity (SOD2 [4]) | inhibition of purified ACMSD-1 enzyme (hACMSD (ACMSD1)) |
| --- | --- | --- | --- | --- | --- | --- | --- | --- | --- | --- |
| N#Cc1c(-c2ccccc2)nc(SCc2cccc(C(=O)O)c2)[nH]c1=O [Compound 1] | No Activity | increased in a dose-dependent manner | increased in a dose-dependent manner | decrease in FoxO1 phosphorylation at Ser256 with increasing dose | induced in a dose-dependent manner | inhibited ACMSD-1 activity, in a dose dependent manner | Not Toxic | Not Toxic | induced in a dose-dependent manner | – |
| CCCCC(CC)COC(=O)c1ccccc1C(=O)O (stereo not shown) [MEHP, mono-(2-ethylhexyl)phthalate] | – | – | – | – | – | – | – | – | – | 70% |
